Values of other authors, collected in US9731015B2, “Water-soluble lipophilic natural compound formulations” (priority 2012, dated 2017).

Columns and labels:
[1] = background statement
[2] = humans, up to 4 g
[3] = animal pharmacokinetic studies

solubility in water [1]	quercetin in plasma after oral administration [2]	bioavailability of oral doses [3]	SMILES
insoluble in water	–	–	COC1=C(OC)C(=O)C(C/C=C(\C)CC/C=C(\C)CC/C=C(\C)CC/C=C(\C)CC/C=C(\C)CC/C=C(\C)CC/C=C(\C)CC/C=C(\C)CC/C=C(\C)CCC=C(C)C)=C(C)C1=O [Co-enzyme Q-10, ubidecarenone]
–	No quercetin could be found in plasma	–	O=c1c(O)c(-c2ccc(O)c(O)c2)oc2cc(O)cc(O)c12 [quercetin]
virtually insoluble in water	–	very low bioavailability	Oc1ccc(C=Cc2cc(O)cc(O)c2)cc1 [resveratrol, 3,5,4′-trihydroxystilbene]
